This note sets out measurements from patent publication US20090220473A1, “ADIR RELATED POLYMORPHISMS AND APPLICATIONS THEREOF” (Leiden University Medical Center, priority 2006, published 2009).

One test has as its system T2 cells. The test can be described thus: 51Cr release assay on peptide loaded T2 cells with CTL. The test is classed as cell-based. The conditions noted are these: for recognition (lysis) by RDR2 of peptide loaded T2 cells: 51Cr release assay, FIG. 2b. The protocol: Cytotoxicity of CTL clones in standard ^51Cr release assays was performed as described previously (Faber et al. 1992, J Exp Med 176: 1283-1289). Target cells were labelled with 100 μCi Na2^51CrO4 (Amersham Biosciences, Freiburg, Germany) for 1 hour at 37° C., washed, and diluted to […] to 5*10^4 cells per ml to obtain 10^3 to 5*10^3 target cells per well. CTL's were added in various effector:target (E:T) ratios and incubated for 4 hours. Supernatants were harvested and transferred to solid scintillator containing microplates (Perkin Elmer, Boston Mass., USA) and counted on a Topcount counter (Perkin Elmer). HPLC purified natural peptides or diluted synthetic peptides were tested for reactivity by loading ^51Cr labelled T2 or donor EBV LCL cells for 1-2 hours at 37° C. and 5% CO2 prior to addition of CTL.

In test [1] the target is T1, recombinant HLA A*0201 molecules (Homo sapiens, UniProt P04439, D140Y/D185E/D98H/E176V/E277Q/G131W/G231S/I119V/I121R/I166T/I218V/L300P/L318F/N151K/N90K/P208A/P217A/Q86G/Q94H/R138H/R169H/T345S).
T1 construct: biotin (biotinylated); made in house
Kind of test: Binding of peptides to recombinant HLA A*0201 molecules (monomer folding). From the text:
Recombinant biotinilated HLA A*0201 monomers were folded in the presence of β2-microbglobulin with peptide […] or […]. Streptavidin-PE and streptavidin-APC tetramers were produced with refolded complexes as described previously (Altman et al. 1996 Science 274: 94-96). Tetrameric complexes were used to stain thawed patient samples taken at the indicated time points post SCT and DLI. Cells were counterstained by CD8 APC (Caltag, Burlingame, Calif., USA) and analysed by flowcytometry. Tetramer positive events were single well FACS sorted, expanded and tested for cytotoxicity.

A further test has as its system GVHD. The test can be described thus: Treatment of acute GVHD in the patient after DLI. The test is classed as in vivo, human. The conditions noted are these: 1 mg prednisolone/kg body weight and cyclosporin A together.
Test [2] deals with recombinant HLA A*0201 molecules (human, biotinylated (site not stated)). Kind of test: refolding of recombinant HLA A*0201 with beta2-microglobulin and peptide.

Entries after “also recorded” stand apart in the source; their conditions may differ.

Consider SVAPALALFPA [LB-ADIR-1F], for which the “recognition (lysis) by RDR2 of peptide loaded T2 cells” value in the test with T2 cells was “lysed; also recorded: recognized”. Moreover, in test [1], the “binding to recombinant HLA A*0201 molecules” value is listed as “able to bind”.
In the case of `C[C@]12C=CC(=O)C=C1CC[C@@H]1[C@@H]2[C@@H](O)C[C@@]2(C)[C@H]1CC[C@]2(O)C(=O)CO` [prednisolone], in the test with GVHD, the “treatment of GVHD” value is listed as “treated successfully”.
For the molecule “SVAPALALSPA [SVAPALAL-S-PA, donor-type allelic counterpart peptide with serine at position 9, reference compound]”, in the test with T2 cells, the “recognition (lysis) by RDR2 of peptide loaded T2 cells” value is reported as “not”. Also, in test [1], the “binding to recombinant HLA A*0201 molecules” value is recorded as “able to bind”.
Consider SVAPAXAXFPA, for which, in the test with T2 cells (51Cr labelled T2 cells loaded with synthetic peptide, levels as low as, data not shown), the “peptide level at which lysis by RDR2 was reconstituted” value was not above 10 pM.

B1: LB-ADIR-1F peptide SVAPALALFPA (peptide)
peptide: SVAPALALFPA
notes: Synthetic 11-mer
Take B1: the binding result in test [2] is “binds”.

B2: peptide SVAPALALSPA (peptide)
peptide: SVAPALALSPA
notes: Synthetic peptide of the donor-type (Ser) allele
As to B2, the binding result in test [2] is “binds”.
